A short description of data set [1]: Measurement of count median diameter of residual aerosol in dilution with DMS (differential mobility spectrometer). The class given is physicochemical. Conditions: for Count median diameter: Experimental Example 1, DMS, reduced pressure 0.25 bar, primary dilution 25 L/min, secondary dilution 200-fold, weight addition ratio of Table 1; for count median diameter (result in words): Experimental Example 1, DMS. From the text:
Since the DMS measures an aerosol under reduced pressure (0.25 bar) and a high dilution condition, an aerosol with high volatility is easily vanished and gasified. In the case of an aerosol with relatively low volatility, a particle diameter distribution is obtained in terms of residual aerosol, although the aerosol is reduced by volatilization. In this case, if the diameters of generated aerosol particles are the same, the particle diameter distribution of the residual aerosol varies depending of the level of volatility. In this Example, a peak particle diameter based on the number is considered to indicate the stability under reduced pressure and a high dilution condition and thus is used as the index. A larger count median diameter means that an aerosol is more stably present, and a smaller count median diameter means that an aerosol is more unstable. Under the conditions of this experiment, the primary dilution was performed at 25 L/min, and the secondary dilution was set to 200-fold and performed. Note that a mass peak particle diameter immediately after the generation before dilution and pressure reduction were involved was also separately measured with Spraytec (Model STP5321, Malvern), and, in the types of additives and the range of the amounts of additives added in this Example, there was no difference, and the count median diameters were present at about 200 nm.

Data set [2] can be described thus: Measurement of solubility in glycerin (GC-FID). Conditions: Experimental Example 1, excess fatty acid in 2 g glycerin, standing 48 hours. The class given is physicochemical. How it is done:
The solubility in glycerin is most preferably measured by a method for quantitatively determining a fatty acid dissolved in 2 g of glycerin. Specifically, after an excessive amount of a fatty acid is added to glycerin, the mixture is separated into two layers, for example, by standing at ordinary temperature for 24 hours or more or by centrifugal separation, 100 mg aliquot of glycerin is taken, and transferred and dissolved into 2 mL of methanol, and the amount of fatty acid dissolved in glycerin is quantitatively determined by gas chromatograph-flame ionized detector (GC-FID) or gas chromatograph-mass spectrometer (GC-MS).
If the amount of fatty acid excessively added is large, the separation into two layers becomes difficult, and thus it is necessary to add the fatty acid in a slightly excessive amount.

Turning to `CCCCCCCC(=O)O` [Comparative Example 2, Octanoic acid], the Count median diameter in data set [1] was 38.7 nm.

As for `CCCCCCCCCC(=O)O` [Comparative Example 3, Decanoic acid], the Count median diameter in data set [1] is on record as 50.5 nm.

In data set [2], `CCCCCCCCCCCCCC(=O)O` [Comparative Example 4, Myristic acid] yielded a Solubility in glycerin of 0.14 mg/g. Besides, the Count median diameter in data set [1] is on record as 51.6 nm.

As for `CCCCCCCCCCCCCCCCCCC(=O)O` [Comparative Example 5, Nonadecanoic acid], the Solubility in glycerin in data set [2] is listed as 0.09 mg/g. In data set [1], the Count median diameter is given as 74.6 nm.

The molecule `CC/C=C\C/C=C\C/C=C\CCCCCCCC(=O)O` [Comparative Example 6, Linolenic acid] had a Solubility in glycerin in data set [2] of 0.32 mg/g.

Regarding `CCCCC/C=C\C/C=C\CCCCCCCC(=O)O` [Comparative Example 7, Linoleic acid], the Solubility in glycerin in data set [2] is 0.14 mg/g. In data set [1], the Count median diameter is 61.9 nm.

As for `CCCCCCCC/C=C\CCCCCCCC(=O)O` [Comparative Example 8, Oleic acid], the Solubility in glycerin in data set [2] is on record as 1.82 mg/g. Further, the Count median diameter in data set [1] is 55.1 nm.

On to `CCCCCCCCCCCCCCCC(=O)O` [Example 1, Palmitic acid], for which, in data set [1], the Count median diameter is 67.8 nm.

`CCCCCCCCCCCCCCCCCC(=O)O` [Example 2, Stearic acid]: in data set [1], the “count median diameter (result in words)” value was “large count median diameters” and the Count median diameter was 75.3 nm.

Regarding `CCCCCCCCCCCCCCCC(=O)O` [palmitic acid], the “count median diameter (result in words)” value in data set [1] is “large count median diameters”.

Values taken from patent publication EP4052593B1, “TOBACCO FILLER FOR HEAT-NOT-BURN TOBACCO PRODUCTS, HEAT-NOT-BURN TOBACCO PRODUCT, AND ELECTRICALLY HEATED TOBACCO PRODUCT” (Japan Tobacco Inc., priority 2019, dated 2021).
